Data from patent US11596639B2, “Substituted indole Mcl-1 inhibitors” (Vanderbilt University, priority 2016, dated 2023).
pKi: −log10 of the molar value. Where two headings read alike, the source gives them in different places.

Experiments:
Mcl-1 = Mcl-1 (Homo sapiens (Human), UniProt Q07820); assay: Fluorescence polarization anisotropy (FPA) competition assay, FITC-Bak or FITC-Bim BH3 peptide; assay type: binding; details: read-out: Ki for Inhibition of Mcl-1 by FPA assay
[1] = system: H929 human cancer cell lines; assay: Cellular viability / proliferation (Cell TiterGlo, 72 h); assay type: cell-based
How it was run: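 Plating is at 1,000 cells/well in 10% FBS medium; after 24 h, compound is added as a 2-fold series starting at 50 μM with under 1% DMSO.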

[2] = Homo sapiens, NCI-H929, 72 h, read-out: GI50 on cellular proliferation of H929 human cancer cell lines, H929 cells, 72 h, Cell TiterGlo, 10% FBS
[3] = read-out: GI50 on cellular proliferation of H929 human cancer cell lines, H929 cells, 72 h, Cell TiterGlo, 10% FBS

Sequence of Mcl-1 (Q07820 172-327): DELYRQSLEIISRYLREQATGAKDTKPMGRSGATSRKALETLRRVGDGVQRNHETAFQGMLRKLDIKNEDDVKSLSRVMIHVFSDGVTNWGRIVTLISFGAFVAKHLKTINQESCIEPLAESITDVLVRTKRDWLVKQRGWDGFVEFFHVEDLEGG

SMILES	pKi (Mcl-1)	GI50 [1, 2] [nM]	GI50 [1, 3] [nM]	GI50 ([1]; H929 cells, 72 h, Cell TiterGlo, 10% FBS, read-out: GI50 on cellular proliferation of H929 human cancer cell lines) [nM]
Cc1cc(OCCCc2c3n(c4c(-c5c(C)nn(C)c5C)c(Cl)ccc24)[C@H](C)CN(c2cn(C)c4ccc(-c5nnnn5C)cc24)C3=O)cc(C)c1Cl [Example 358, (R)-7-Chloro-10-(3-(4-chloro-3,5-dimethylphenoxy)propyl)-4-methyl-2-(1-methyl-5-(1-methyl-1H-tetrazol-5-yl)-1H-indol-3-yl)-6-(1,3,5-trimethyl-1H-pyrazol-4-yl)-3,4-dihydropyrazino[1,2-a]indol-1(2H)-one]	8.38	2300		
Cc1cc(OCCCc2c3n(c4c(-c5c(C)nn(CC6CCN(C)CC6)c5C)c(Cl)ccc24)[C@H](C)CN(c2cn(C)c4c(C)cc(C(=O)O)cc24)C3=O)cc(C)c1Cl [Example 161, (R)-3-(7-chloro-10-(3-(4-chloro-3,5-dimethylphenoxy)propyl)-6-(3,5-dimethyl-1-((1-methylpiperidin-4-yl)methyl)-1H-pyrazol-4-yl)-4-methyl-1-oxo-3,4-dihydropyrazino[1,2-a]indol-2(1H)-yl)-1,7-dimethyl-1H-indole-5-carboxylic acid]	8.55	480		
Cc1cc(OCCCc2c3n(c4c(-c5c(C)nn(CC6CCN(C)CC6)c5C)c(Cl)ccc24)[C@H](C)CN(c2cccc4c(C(=O)O)cn(C)c24)C3=O)cc(C)c1Cl [Example 137, (R)-7-(7-chloro-10-(3-(4-chloro-3,5-dimethylphenoxy)propyl)-6-(3,5-dimethyl-1-((1-methylpiperidin-4-yl)methyl)-1H-pyrazol-4-yl)-4-methyl-1-oxo-3,4-dihydropyrazino[1,2-a]indol-2(1H)-yl)-1-methyl-1H-indole-3-carboxylic acid]	8.92	460		
COc1ccc(N2C[C@@H](C)n3c(c(CCCOc4cc(C)c(Cl)c(C)c4)c4ccc(Cl)c(-c5c(C)nn(C)c5C)c43)C2=O)c2c1cc(C(N)=O)n2C [Example 412, (R)-7-(7-Chloro-10-(3-(4-chloro-3,5-dimethylphenoxy)propyl)-4-methyl-1-oxo-6-(1,3,5-trimethyl-1H-pyrazol-4-yl)-3,4-dihydropyrazino[1,2-a]indol-2(1H)-yl)-4-methoxy-1-methyl-1H-indole-2-carboxamide]	8.89	450		
Cc1cc(OCCCc2c3n(c4c(-c5c(C)nn(C)c5C)c(Cl)ccc24)CCCN(c2cccc4c(C(=O)O)nn(C)c24)C3=O)cc(C)c1Cl [Example 13, 7-[8-Chloro-11-[3-(4-chloro-3,5-dimethyl-phenoxy)propyl]-1-oxo-7-(1,3,5-trimethylpyrazol-4-yl)-4,5-dihydro-3H-[1,4]diazepino[1,2-a]indol-2-yl]-1-methyl-indazole-3-carboxylic acid]	> 9.00	4500		
Cc1cc(OCCCc2c3n(c4c(-c5c(C)nn(CC(=O)O)c5C)c(Cl)ccc24)CCCN(c2cccc4cccnc24)C3=O)cc(C)c1Cl [Example 144, 2-(4-(8-Chloro-11-(3-(4-chloro-3,5-dimethylphenoxy)propyl)-1-oxo-2-(quinolin-8-yl)-2,3,4,5-tetrahydro-1H-[1,4]diazepino[1,2-a]indol-7-yl)-3,5-dimethyl-1H-pyrazol-1-yl)acetic acid]	> 9.00	6500		
Cc1cc(N2C[C@@H](C)n3c(c(CCCOc4cc(C)c(Cl)c(C)c4)c4ccc(Cl)c(-c5c(C)nn(C)c5C)c43)C2=O)c2c(c1)cc(C(=O)O)n2CC1CCN(C)C1 (stereo partly drawn) [Example 330, 7-((R)-7-Chloro-10-(3-(4-chloro-3,5-dimethylphenoxy)propyl)-4-methyl-1-oxo-6-(1,3,5-trimethyl-1H-pyrazol-4-yl)-3,4-dihydropyrazino[1,2-a]indol-2(1H)-yl)-5-methyl-1-((1-methylpyrrolidin-3-yl)methyl)-1H-indole-2-carboxylic acid]	8.89	2300		
Cc1cc(OCCCc2c3n(c4c(-c5c(C)nn(C)c5C)c(Cl)ccc24)[C@H](C)CN(c2cccc4cc(C(N)=O)n(C)c24)C3=O)cc(C)c1Cl [Example 270, 7-[(4R)-7-chloro-10-[3-(4-chloro-3,5-dimethyl-phenoxy)propyl]-4-methyl-1-oxo-6-(1,3,5-trimethylpyrazol-4-yl)-3,4-dihydropyrazino[1,2-a]indol-2-yl]-1-methyl-indole-2-carboxamide]	8.96		310	
Cc1cc(OCCCc2c3n(c4c(-c5c(C)nn(C)c5C)c(Cl)ccc24)[C@H](C)CN(c2cccc4c2cc(C#N)n4C)C3=O)cc(C)c1Cl [Example 301, 4-[(4R)-7-chloro-10-[3-(4-chloro-3,5-dimethyl-phenoxy)propyl]-4-methyl-1-oxo-6-(1,3,5-trimethylpyrazol-4-yl)-3,4-dihydropyrazino[1,2-a]indol-2-yl]-1-methyl-indole-2-carbonitrile]	8.55	8300		
CCn1cc(N2C[C@@H](C)n3c(c(CCCOc4cc(C)c(Cl)c(C)c4)c4ccc(Cl)c(-c5c(C)nn(C)c5C)c43)C2=O)c2cccc(C(=O)O)c21 [Example 83, (R)-3-(7-Chloro-10-(3-(4-chloro-3,5-dimethylphenoxy)propyl)-4-methyl-1-oxo-6-(1,3,5-trimethyl-1H-pyrazol-4-yl)-3,4-dihydropyrazino[1,2-a]indol-2(1H)-yl)-1-ethyl-1H-indole-7-carboxylic acid]	> 9.00	1100		
Cc1cc(OCCCc2c3n(c4c(-c5c(C)nn(C)c5C)c(Cl)ccc24)[C@H](C)CN(c2cn(C)c4c(C#N)cc(C(=O)O)cc24)C3=O)cc(C)c1Cl [Example 244, (R)-3-(7-Chloro-10-(3-(4-chloro-3,5-dimethylphenoxy)propyl)-4-methyl-1-oxo-6-(1,3,5-trimethyl-1H-pyrazol-4-yl)-3,4-dihydropyrazino[1,2-a]indol-2(1H)-yl)-7-cyano-1-methyl-1H-indole-5-carboxylic acid]	> 9.00	400		
COc1cc(N2C[C@@H](C)n3c(c(CCCOc4cc(C)c(Cl)c(C)c4)c4ccc(Cl)c(-c5c(C)nn(C)c5C)c43)C2=O)c2cc(C(=O)O)n(C)c2c1 [Example 334, (M, R)-4-(7-Chloro-10-(3-(4-chloro-3,5-dimethylphenoxy)propyl)-4-methyl-1-oxo-6-(1,3,5-trimethyl-1H-pyrazol-4-yl)-3,4-dihydropyrazino[1,2-a]indol-2(1H)-yl)-6-methoxy-1-methyl-1H-indole-2-carboxylic acid]	> 9.00			1200
Cc1cc(OCCCc2c3n(c4c(-c5c(C)nn(C)c5C)c(Cl)ccc24)CCCN(c2cc(C(=O)O)c4ccn(CCN5CCOCC5)c4c2)C3=O)cc(C)c1Cl [Example 31, 6-(8-chloro-11-(3-(4-chloro-3,5-dimethylphenoxy)propyl)-1-oxo-7-(1,3,5-trimethyl-1H-pyrazol-4-yl)-4,5-dihydro-1H-[1,4]diazepino[1,2-a]indol-2(3H)-yl)-1-(2-morpholinoethyl)-1H-indole-4-carboxylic acid]	> 9.00	1800		
Cc1cc(OCCCc2c3n(c4c(-c5c(C)nc(N6CCN(C)CC6)nc5C)c(Cl)ccc24)CCCN(c2cn(C)c4ccc(C(=O)O)cc24)C3=O)cc(C)c1Cl [Example 228, 3-(8-Chloro-11-(3-(4-chloro-3,5-dimethylphenoxy)propyl)-7-(4,6-dimethyl-2-(4-methylpiperazin-1-yl)pyrimidin-5-yl)-1-oxo-4,5-dihydro-1H-[1,4]diazepino[1,2-a]indol-2(3H)-yl)-1-methyl-1H-indole-5-carboxylic acid]	8.80	780		
Cc1cc(OCCCc2c3n(c4c(-c5c(C)nn(C)c5C)c(Cl)ccc24)[C@H](C)CN(c2cccc4c(C(=O)O)cn(C)c24)C3=O)cc(C)c1Cl [Example 215, (R)-7-(7-chloro-10-(3-(4-chloro-3,5-dimethylphenoxy)propyl)-4-methyl-1-oxo-6-(1,3,5-trimethyl-1H-pyrazol-4-yl)-3,4-dihydropyrazino[1,2-a]indol-2(1H)-yl)-1-methyl-1H-indole-3-carboxylic acid]	> 9.00		430	
Cc1cc(OCCCc2c3n(c4c(-c5c(C)nn(C)c5C)c(Cl)ccc24)[C@H](C)CN(c2cc(C(=O)O)nc4c2ccn4C)C3=O)cc(C)c1Cl [Example 167, (R)-4-(7-chloro-10-(3-(4-chloro-3,5-dimethylphenoxy)propyl)-4-methyl-1-oxo-6-(1,3,5-trimethyl-1H-pyrazol-4-yl)-3,4-dihydropyrazino[1,2-a]indol-2(1H)-yl)-1-methyl-1H-pyrrolo[2,3-b]pyridine-6-carboxylic acid]	> 9.00	4100		
Cc1cc(OCCCc2c3n(c4c(-c5c(C)nn(C)c5C)c(Cl)ccc24)[C@H](C)CN(c2cn(C)c4ccc(-c5ncn(C)n5)cc24)C3=O)cc(C)c1Cl [Example 403, (R)-7-Chloro-10-(3-(4-chloro-3,5-dimethylphenoxy)propyl)-4-methyl-2-(1-methyl-5-(1-methyl-1H-1,2,4-triazol-3-yl)-1H-indol-3-yl)-6-(1,3,5-trimethyl-1H-pyrazol-4-yl)-3,4-dihydropyrazino[1,2-a]indol-1(2H)-one]	8.82	< 200		
Cc1cc(OCCCc2c3n(c4c(-c5c(C)nn(C)c5C)c(Cl)ccc24)CCCN(c2cc(C(=O)O)c4cnn(CCN(C)C)c4c2)C3=O)cc(C)c1Cl [Example 30, 6-[8-Chloro-11-[3-(4-chloro-3,5-dimethyl-phenoxy)propyl]-1-oxo-7-(1,3,5-trimethylpyrazol-4-yl)-4,5-dihydro-3H-[1,4]diazepino[1,2-a]indol-2-yl]-1-[2-(dimethylamino)ethyl]indazole-4-carboxylic acid]	8.92	5400		
